Legend:
K562 leukemia cells = experiment: MTT assay, in vitro inhibitory activity on cells; assay type: cell-based; conditions: Homo sapiens, typically 48 hours, read-out: IC50 K562 Chronic myelogenous leukemia cells
Text: (§1) In this example, MTT assay was used to detect in vitro inhibitory activity of the compounds prepared according to the above examples on the cells.
(§2) Dimethyl sulfoxide (DMSO) is capable of dissolving formazan in cells, and absorbance value can be measured at a wavelength of 490 nm by an enzyme-linked immunometric meter, which reflects the number of living cells. Within a certain range of the number of cells, the amount of MTT crystals formed is proportional to the number of living cells.
(§3) 2. Culturing in a 37° C., 5% CO2 incubator and keeping the cells adhering to the walls of the wells.
(§4) 4. Carefully removing the supernatant, gently washing with PBS and discarding the supernatant again.
(§5) 6. Terminating culturing and carefully discarding the medium in each well. 7. Adding 150 μl dimethyl sulfoxide into each well, shaking for 10 minutes at low speed in a shaker, to make crystals fully dissolved.
(§6) 8. Measuring the absorbance of each well at 490 nm by an enzyme-linked immunometric meter.

[1] = system: Ovcar-3 human ovarian cancer cells; experiment: MTT assay, in vitro inhibitory activity on cells; assay type: cell-based; conditions: typically 48 hours
Text: as §1, §2, §3, §4, §5, §6

[2] = system: MDA-MB-231 human breast cancer cells; experiment: MTT assay, in vitro inhibitory activity on cells; assay type: cell-based; conditions: typically 48 hours
Text: as §1, §2, §3, §4, §5, §6

[3] = system: Saos-2 human osteosarcoma cells; experiment: MTT assay, in vitro inhibitory activity on cells; assay type: cell-based; conditions: typically 48 hours
Text: as §1, §2, §3, §4, §5, §6

Human ABL1 (T315I) = Human ABL1 (T315I) (Homo sapiens (Human), UniProt P00519, T315I); experiment: ABL1 (T315I) kinase activity assay ([γ-33P] ATP, Abltide); assay type: biochemical; conditions: 1.0 μM ATP, 5.0 μM Abltide, 120 minutes
Protocol: In the experimental example, the compounds prepared according the examples of the present invention were tested for the ability to inhibit ABL (T315I) kinase activity. […] Kinase activity was determined according to the manufacturer's instructions. Peptide substrate is Abltide ([…]), purchased from Millipore Corporation, USA. Ion exchange chromatography paper P81 (ion exchange filter paper) was purchased from Whatman Company, UK. [γ-33P] ATP was purchased from Perkin Elmer Company. […] [γ-33P] ATP was added at room temperature, with final concentration of 1.0 μM, and the reaction was performed for 120 minutes. 20 μl aliquots were transferred onto the ion exchange chromatography paper P81. […] Finally, γ-33P radioactivity was measured.

[4] = system: KU812 human peripheral blood basophilic leukocytes; experiment: CellTiter-Glo cell viability assay, Bcr-Abl-positive cells; conditions: KU812, 72 h, read-out: IC50 KU812
Protocol: (§7) The resulting solutions were 10-fold serially diluted and formulated into 10 concentrations.
(§8) MEG-01 human megakaryocyte leukemia cells and KU812 human peripheral blood basophilic leukocytes, purchased from ATCC Company, USA.
(§9) The peripheral wells were filled with sterile PBS;
(§10) 2) Adding 10 μl of 5× concentration gradient of the tested compound, and adding 10 μl medium containing 0.5% DMSO into the blank control wells, in which the concentration of DMSO was 0.1%;
(§11) 3) Incubating the cells in a 37° C./5% CO2 incubator;
(§12) 4) Adding 30 μl Cell Titer-Glo® Reagent 72 hours after adding the compound;
(§13) 5) Incubating in a 37° C./5% CO2 incubator for 10 minutes; and centrifuging at low speed and then measuring chemiluminescence values on a PHERAstar microplate reader.
(§14) 6) Calculating cell viability (Cell Viability=(RLUsample/RLUnegative)×100%, wherein RLUsample was RLU (Relative Light Units) value of the well added with the compound and RLUnegative was RLU value of the well without the compound (i.e., cell control, which was treated with the same concentration of DMSO)). Data were processed by using a four-parameter logistic fitting module in Graphpad Prism 4.0 software to calculate IC50.

[5] = system: MEG-01 human megakaryocyte leukemia cells; experiment: as above; conditions: MEG-01, 72 h, read-out: IC50 MEG-01
Protocol: as §7, §8, §9, §10, §11, §12, §13, §14

SMILES | IC50 (K562 leukemia cells) [nM] | IC50 [1] [nM] | IC50 [2] [nM] | IC50 [3] [nM] | IC50 (Human ABL1 (T315I)) [nM] | IC50 [4] [nM] | IC50 [5] [nM]
Cc1ccc(C(=O)Nc2ccc(CN3CCN(C)CC3)c(C(F)(F)F)c2)cc1C#Cc1cnc2[nH]ccc2n1 [Example 3] | 6330 | 2850 | 180 | 380 | 2.12 | 0.395 | 1.38
CNc1nc2cc(C#Cc3cc(C(=O)Nc4ccc(CN5CCN(C)CC5)c(C(F)(F)F)c4)ccc3C)ccn2n1 [Example 5, 3-((2-methylamino-[1,2,4]triazolo[1,5-a]pyridin-7-yl)ethynyl)-4-methyl-N-[4-((4-methylpiperazin-1-yl)methyl)-3-trifluoromethylphenyl]benzamide] | 6790 |  | 2150 |  | 2.28 | 0.633 | 1.76
Cc1ccc(C(=O)Nc2ccc(CN3CCN(C)CC3)c(C(F)(F)F)c2)cc1C#Cc1ccc(-c2ncc(C(F)(F)F)[nH]2)nc1 [Example 18, 4-methyl-3-((2-(5-trifluoromethyl-1H-imidazol-2-yl)pyridin-5-yl)ethynyl)-N-[4-((4-methylpiperazin-1-yl)methyl)-3-trifluoromethylphenyl]benzamide] | 1430 |  |  |  | 57.9 |  | 
Cc1ccc(C(=O)Nc2ccc(CN3CCN(C)CC3)c(C(F)(F)F)c2)cc1C#Cc1ccn2nc(N)nc2c1 [Example 4, 3-((2-amino-[1,2,4]triazolo[1,5-a]pyridin-7-yl)ethynyl)-4-methyl-N-[4-((4-methylpiperazin-1-yl)methyl)-3-trifluoromethylphenyl]benzamide] | 13500 |  | 1060 |  |  | 0.789 | 3.28
Cc1ccc(C(=O)Nc2ccc(CN3CCN(C)CC3)c(C(F)(F)F)c2)cc1C#Cc1ccn2nc(N(C)C)nc2c1 [Example 6, 3-((2-dimethylamino-[1,2,4]triazolo[1,5-a]pyridin-7-yl)ethynyl)-4-methyl-N-[4-((4-methylpiperazin-1-yl)methyl)-3-trifluoromethylphenyl]benzamide] | 4160 |  |  |  | 39.4 |  | 
Cc1ccc(C(=O)Nc2ccc(CN3CCN(C)CC3)c(C(F)(F)F)c2)cc1C#Cc1cn(C)c(-c2ncc(C(F)(F)F)[nH]2)n1 [Example 9, 4-methyl-3-((1-methyl-5′-trifluoromethyl-1H,1′H-[2,2′-diimidazol]-4-yl)ethynyl)-N-[4-((4-methylpiperazin-1-yl)methyl)-3-trifluoromethylphenyl]benzamide] | 330 | 6500 | 5080 | 1160 | 6.45 |  | 
Cc1ccc(C(=O)Nc2ccc(CN3CCN(C)CC3)c(C(F)(F)F)c2)cc1C#Cc1ccc(-c2ncc[nH]2)nc1 [Example 19, 4-methyl-3-((2-(1H-imidazol-2-yl)pyridin-5-yl)ethynyl)-N-[4-((4-methylpiperazin-1-yl)methyl)-3-trifluoromethylphenyl]benzamide] | 4520 |  | 3010 |  | 6.81 |  | 

From patent US9255107B2 (NANJING SANHOME PHARMACEUTICAL CO., LTD., priority 2012, dated 2016)
